Data as given in patent US20210221822A1, “TRICYCLIC DERIVATIVES INHIBITOR, PREPARATION METHOD, AND APPLICATIONS THEREOF” (Jiangsu Hansoh Pharmaceutical Group Co., Ltd., priority 2018, published 2021).

Experiments:
[1] = system: PI3Kα mutant cancer cells HGC-27 (E542K); test: Cell Titer-Glo proliferation inhibition, HGC-27; assay type: cell-based; conditions: Homo sapiens, 48 to 96 hours
Protocol: (§1) Experimental method: The proliferation inhibitory effect of the compounds of the examples on PI3Kα mutant cancer cell lines HCC1954, HGC-27 and MKN1 was determined by Cell Titer-Glo method. The cell lines were cultured in RPMI 1640 medium (Gibco #22400089) containing 10% FBS (Gibco #10091148) and 1% P/S (Hyclone #SV30010) at 37° C. and 5% CO2. Before the experiment, the cells were collected and counted, and then the cell density was adjusted. The cells were inoculated in a white 96-well plate (Corning #3610) at a density of 1000 to 10000 cells/well, and incubated in an incubator at 37° C., 5% CO2 overnight. The compound solution of different concentrations was added, and corresponding vehicle control was set at the same time. The cell plate was further incubated in an incubator at 37° C., 5% CO2 for 48 to 96 hours. The cell plate and its content were equilibrated to room temperature. 20 to 100 μL of Cell Titer-Glo solution (Promega #G7573) was added to each well, and the plate was shaked well and incubated at room temperature in the dark for 5 to 30 minutes. The chemiluminescence value was measured by the BioTek SynergyH1 microplate reader.
(§2) The percentage inhibition data of the well treated by the compounds of the examples was calculated through the vehicle control well on the plate {% inhibition rate=100−(test compound value/vehicle control value)×100}. The IC50 value was calculated by fitting the data of different concentrations and corresponding percentage inhibition rates to a four-parameter nonlinear logic formula with GraphPad prism.

[2] = system: HCC1954 cells; test: In vivo efficacy test, HCC1954 tumor-bearing nude mice; parameters: species or system BALB/c nude mice; conditions: HCC1954 xenograft, oral 10 mg/kg once/day, 21 days (Example 51: 19 days)
Protocol: a. HCC1954 cells were taken from the cell bank, and resuscitated in RPMI-1640 medium (RPMI-1640+10% FBS+1% SP). The resuscitated cells were placed in a cell culture flask (the cell type, date, operator's name and the like were marked on the wall of the flask), and cultured in a CO2 incubator (the temperature of the incubator was 37° C., and the CO2 concentration was 5%).
c. The cultured cells were collected and counted with the automatic cell counter. The cells were resuspended with PBS and matrigel according to the counting results to prepare a cell suspension (density: 5×10^7/mL), which was placed in an ice box for later use.
d. The test nude mice were subjected to inoculation successively (0.1 mL of cell suspension was inoculated to each mouse).
a. According to the tumor growth, the tumor was measured on 14 to 18 days after the inoculation, and the tumor size was calculated.
Tumor volume calculation: tumor volume (mm^3)=length (mm)×width (mm)×width (mm)/2
c. According to the grouping results, the test compounds were administered (administration mode: oral administration; administration dose: 10 mg/kg;
administration volume: 10 mL/kg; administration frequency: once/day; administration cycle: 21 days; vehicle: 0.5% CMC/1% Tween 80).
d. Tumor volume and body weight were measured twice a week after the administration of test compounds began.
f. […]

[3] = target: T1, PI3Kγ (Homo sapiens, UniProt P48736); test: ADP-Glo lipid kinase assay, PI3Kγ kinase activity; assay type: biochemical; conditions: 0.4 nM enzyme, 120 min, 50 μM ATP
T1 construct: purchased Thermofisher PV4786
T1 sequence (P48736 whole entry): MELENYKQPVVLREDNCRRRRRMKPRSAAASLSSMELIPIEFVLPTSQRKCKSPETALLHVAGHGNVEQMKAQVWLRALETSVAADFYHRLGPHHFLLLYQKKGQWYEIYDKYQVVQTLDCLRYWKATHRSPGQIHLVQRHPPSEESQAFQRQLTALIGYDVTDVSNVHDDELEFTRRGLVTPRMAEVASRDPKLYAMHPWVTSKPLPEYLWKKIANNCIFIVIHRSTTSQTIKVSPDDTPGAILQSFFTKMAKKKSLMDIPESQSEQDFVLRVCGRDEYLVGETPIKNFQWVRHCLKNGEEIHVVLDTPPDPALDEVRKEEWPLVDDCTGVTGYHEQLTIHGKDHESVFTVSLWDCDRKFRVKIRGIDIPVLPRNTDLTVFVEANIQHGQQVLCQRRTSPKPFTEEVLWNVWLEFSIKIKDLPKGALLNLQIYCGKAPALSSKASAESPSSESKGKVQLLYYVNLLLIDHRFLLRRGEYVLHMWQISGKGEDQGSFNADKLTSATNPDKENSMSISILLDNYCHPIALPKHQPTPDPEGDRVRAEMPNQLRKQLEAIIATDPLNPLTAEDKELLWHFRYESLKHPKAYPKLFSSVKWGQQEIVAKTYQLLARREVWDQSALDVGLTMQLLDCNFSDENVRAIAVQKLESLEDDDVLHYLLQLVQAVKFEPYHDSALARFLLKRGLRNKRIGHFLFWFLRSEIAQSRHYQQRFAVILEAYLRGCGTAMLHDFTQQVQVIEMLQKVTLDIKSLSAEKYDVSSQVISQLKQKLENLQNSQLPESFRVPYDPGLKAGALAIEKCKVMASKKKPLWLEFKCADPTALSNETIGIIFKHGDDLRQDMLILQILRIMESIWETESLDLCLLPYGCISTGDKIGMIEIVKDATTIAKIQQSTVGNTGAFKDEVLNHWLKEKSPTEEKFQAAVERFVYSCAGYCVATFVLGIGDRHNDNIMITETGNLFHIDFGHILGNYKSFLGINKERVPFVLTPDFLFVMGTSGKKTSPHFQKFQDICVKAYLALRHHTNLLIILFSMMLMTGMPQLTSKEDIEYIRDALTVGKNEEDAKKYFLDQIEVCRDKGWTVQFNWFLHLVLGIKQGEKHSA
In short: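 ADP-Glo luminescence measured ADP formed by PI3Kα, β, γ or δ (0.1-2 nM working solution) with PIP2:3PS (50 μM added solution) and ATP in HEPES/MgCl2/NaCl/BSA buffer, 90 to 120 min at room temperature. % inhibition was set against DMSO and no-kinase controls, and IC50 came from a four-parameter fit.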

[4] = system: PI3Kα mutant cancer cells MKN1 (E545K); test: Cell Titer-Glo proliferation inhibition, MKN1; assay type: cell-based; conditions: Homo sapiens, MKN-1, 48 to 96 hours
Protocol: as §1, §2

With `C[C@H](Nc1ccc2c(c1)OCCn1cc(N3C(=O)COC[C@H]3C(F)F)nc1-2)C(N)=O` [Example 68, (S)-2-((2-((S)-3-(difluoromethyl)-5-oxomorpholino)-5,6-dihydrobenzo[f]imidazo[1,2-d][1,4]oxazepin-9-yl)amino)propanamide] the IC50 [1] was 111 nM, the “Tumor growth inhibition rate” value [2] was 78% and the IC50 [3] was 79 nM. For the same compound, the IC50 [4] was 113 nM.
